Experimental data: patent US20230086469A1, “AUTOANTIGENIC PEPTIDES (CALVICIFIV), PRESENTED BY TOLEROGENIC DENTRITIC CELLS, USEFUL FOR THE PERSONALIZED TREATMENT OF RHEUMATOID ARTHRITIS” (UNIVERSIDAD DE CHILE, priority 2019, published 2023)

Experiments:
Type in all cases: cell-based, human
[1] = system: autologous CD4+ T cells from patients with RA; assay: Co-culture of peptide-pulsed MPLA-tDCs with autologous CFSE-stained CD4+ T cells; conditions: MPLA-tDCs pulsed with peptide in comparison to mDCs, 5 days co-culture; for expression of IFN-γ by proliferating CD4+ T lymphocytes: FIG. 3A
From the text: FIGS. 3A-3C Modulation of antigen-specific CD4+ T cell responses by tolerogenic dendritic cells (tDCs) treated with dexamethasone and monophosphoryl lipid A (MPLA-tDCs) and pulsed with autoantigenic peptides. MPLA-tDCs and MPLA-matured DCs (mDCs), as activation control, were generated from peripheral blood monocytes of RA patients, and pulsed with previously selected peptides or mixtures of them, using a peptide derived from Aggrecan, previously described in literature, as a control peptide. Subsequently, DCs were co-cultured with autologous CFSE-stained CD4+ T cells and, after 5 days, the percentage of proliferating CD4+ T cells (CFSElo) expressing IFN-γ (FIG. 3A), L-17 (FIG. 3B) or TNF-α (FIG. 3C) was evaluated by flow cytometry. […] To compare the expression of cytokines induced by each type of DCs, a T test was performed (*p<0.05).
In order to evaluate the ability of tDCs to modulate antigen-specific CD4+ T cell responses, co-culture assays of tDCs pulsed with autoantigenic peptides and autologous CD4+ T cells from patients with RA were performed. DCs were generated from monocytes isolated from peripheral blood of patients with RA, cultured at a concentration of 2-3×10^6 cells/ml in serum-free AIM-V medium in the presence of 500 U/mL of recombinant human interleukin-4 (rhIL-4) and recombinant human […] colony stimulating factor (rhGM-CSF), for 5 days, at 37° C. and 5% CO2. […]
The effect of autoantigenic peptides to modulate effector CD4+ T cell responses of patients with RA, when are presented by tDCs generated using the protocol described in this application. […] DCs were then co-cultured with CFSE-stained CD4+ T cells and, after 5 days of culture, the percentage of proliferating CD4+T lymphocytes, expressing IFN-γ, IL-17 and TNF-α, was evaluated by flow cytometry. In each case, the percentage of decrease in the expression of proinflammatory cytokines by CD4+ T cells co-cultured with tDCs in comparison to mDCs was calculated.

[2] = system: autologous CD4+ T cells from patients with RA; assay: Co-culture of peptide-pulsed Bay-DCs with autologous CFSE-stained CD4+ T cells; conditions: Bay-DCs pulsed with peptide in comparison to mDCs, 5 days co-culture; for expression of IFN-γ by CD4+ T lymphocytes: FIG. 4A; for decrease of IL-17 expression by CD4+ T lymphocytes: FIG. 4B
From the text: (§1) FIGS. 4A-4C. Modulation of antigen-specific CD4+ T cell responses by tDCs generated using different protocols and pulsed with autoantigenic peptides. Two different protocols were used for tDCs generation from peripheral blood monocytes of RA patients: 1) DCs treated with Bay 11-082 (Bay-DCs); and 2) DCs treated with vitamin D3, dexamethasone and LPS (VD3-DCs); mDCs were used as control. DCs were pulsed with previously selected peptides or mixtures of them, using a peptide derived from Aggrecan, as a positive control. Then, DCs were co-cultured with autologous CFSE-stained CD4+ T cells and, after 5 days, 8 the percentage of proliferating CD4+ T cells (CFSElo) expressing IFN-γ (FIG. 4A), IL-17 (FIG. 4B) or TNF-α (FIG. 4C), was evaluated by flow cytometry. The percentage of decrease in the expression of proinflammatory cytokines by CD4+ T cells co-cultured with tDCs in comparison to mDCs was calculated.
In order to evaluate the potential of autoantigenic peptides to load tolerogenic DCs generated from different protocols to modulate antigen-specific CD4+ T cell responses, co-culture assays of tDCs pulsed with autoantigenic peptides and autologous CD4+ T cells from patients with RA were performed. DCs were generated from monocytes according to the protocol described of example 2. To differentiate other tolerogenic dendritic cells types, DCs generated from monocytes were modulated with Bay-11-7982 an irreversible inhibitor of NF-κB (Bay-DCs), or modulated with Vitamin D3, dexamethasone and LPS (VD3-DCs). As control, mature DCs (mDCs) treated only with MPLA were used.
After this, the cells were pulsed with the autoantigenic peptides in the same way as an example 2, independently with the following autoantigenic peptides; 3 peptides derived from vimentin, such as Vimentin-1, Vimentin-1 citrullinated, Vimentin-2 citrullinated, or autoantigenic peptides derived from Fibrinogen, Calreticulin and Fibronectin, Aggrecan, as a positive control was used of the activation of the autologous CD4+ T cells, and un-pulsed DCs were used as a basal activation control. Besides mixtures were considered: Mix 1: Vimentin-1 and Vimentin-1 citrullinated; Mix 2: Vimentin-2 citrullinated and Calreticulin; Mix 3: Mix 1+Mix 2.
(§2) tDCs were then co-cultured with CFSE-stained CD4+ T cells and, after 5 days of culture, the percentage of proliferating CD4+T lymphocytes, expressing IFN-γ, IL-17 and TNF-α, was evaluated by flow cytometry. In each case, the percentage of decrease in the expression of proinflammatory cytokines by CD4+ T cells co-cultured with tDCs in comparison to mDCs was calculated.

[3] = system: autologous CD4+ T cells from patients with RA; assay: Co-culture of peptide-pulsed VD3-DCs with autologous CFSE-stained CD4+ T cells; conditions: VD3-DCs pulsed with peptide in comparison to mDCs; 5 days co-culture; FIG. 4B
From the text: as §1, with “calculated. […]” for “calculated.”
as §2

Substance | expression of IFN-γ by proliferating CD4+ T lymphocytes [1] | expression of IFN-γ by CD4+ T lymphocytes [2] | decrease of IL-17 expression by CD4+ T lymphocytes [2] | decrease of IL-17 expression by CD4+ T lymphocytes [3] | expression of TNF-α by proliferating CD4+ T lymphocytes ([1]; FIG. 3C)
Calreticulin | significantly reduced | significantly reduced | high percentage of decrease | high percentage of decrease | –
Fibrinogen | – | – | high percentage of decrease | high percentage of decrease | –
Fibronectin | significantly reduced | significantly reduced | – | – | significantly decrease
